Compound: COCC[n+]1c2c(n(Cc3cnccn3)c1C)C(=O)c1ccccc1C2=O [YM155] + Cc1nc(NC(=O)N2CCC[C@H]2C(N)=O)sc1-c1ccnc(C(C)(C)C(F)(F)F)c1 [Alpelisib] (partner 2 µM)
Assay: relative viability (nuclei count vs DMSO), 5 days (fraction); higher = more cells survive
Settings: first compound 0.002 µM
Outline: (§1)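 Relative viability divides the nuclei count in treated wells by that in vehicle wells. Lung cancer cell lines were seeded in 1536-well plates, dosed by pin tool the next day, and fixed and stained after 5 days in one step with final 0.05% Triton X-100, 1% formaldehyde and 1 ug/ml Hoechst. Dosing was a single drug or a fixed anchor-drug dose plus five library-drug doses (not always all listed) in √10 steps, and values are medians of duplicate plates imaged at 4×.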

Cell Line | relative viability
EKVX | 0.897
EPLC-272H | 0.917
NCI-H520 | 0.858
NCI-H1563 | 0.916
NCI-H650 | 1.14
RERF-LC-KJ | 0.806
HCC-827 | 0.982
NCI-H2087 | 0.903
SK-MES-1 | 0.823
NCI-H1299 | 0.993
NCI-H1651 | 0.979
UMC-11 | 1.03
NCI-H1355 | 0.846
H3255 | 0.707
NCI-H1792 | 0.67
NCI-H647 | 0.989
Calu-6 | 0.937
LCLC-97TM1 | 0.297
NCI-H1703 | 0.292

Cell Line | relative viability
LXF-289 | 1.02
LU99A | 0.541
NCI-H2023 | 0.589
NCI-H2228 | 0.764
NCI-H1437 | 0.958
NCI-H1395 | 1.13
NCI-H2009 | 1.2
HCC-366 | 0.365
EBC-1 | 0.786
NCI-H1915 | 1.06
COR-L 105 | 1.1
SK-LU-1 | 1.03
IA-LM | 0.578
NCI-H661 | 0.637
A549 | 0.673
SW 1573 | 0.73
HCC-44 | 0.749
COR-L23 | 0.646

Same assay, conditions: first compound 0.006325 µM

Cell Line | relative viability
EKVX | 0.916
EPLC-272H | 0.937
NCI-H520 | 1
NCI-H1563 | 0.977
NCI-H650 | 1.07
RERF-LC-KJ | 0.705
HCC-827 | 1.04
NCI-H2087 | 1.06
SK-MES-1 | 0.905
NCI-H1299 | 1.01
NCI-H1651 | 0.904
UMC-11 | 1.06
NCI-H1355 | 0.869
H3255 | 0.658
NCI-H1792 | 0.73
NCI-H647 | 1.11
Calu-6 | 0.578
LCLC-97TM1 | 0.228
NCI-H1703 | 0.394

Cell Line | relative viability
LXF-289 | 1.04
LU99A | 0.453
NCI-H2023 | 0.671
NCI-H2228 | 0.782
NCI-H1437 | 1.03
NCI-H1395 | 1.24
NCI-H2009 | 1.14
HCC-366 | 0.428
EBC-1 | 0.862
NCI-H1915 | 1.01
COR-L 105 | 1.3
SK-LU-1 | 1.09
IA-LM | 0.907
NCI-H661 | 0.657
A549 | 0.759
SW 1573 | 0.657
HCC-44 | 0.766
COR-L23 | 0.671

Same assay, conditions: first compound 0.02 µM

Cell Line | relative viability
EKVX | 0.859
EPLC-272H | 0.915
NCI-H520 | 0.853
NCI-H1563 | 0.895
NCI-H650 | 1.15
RERF-LC-KJ | 0.771
HCC-827 | 1.06
NCI-H2087 | 1.03
SK-MES-1 | 1.05
NCI-H1299 | 1.05
NCI-H1651 | 0.925
UMC-11 | 1
NCI-H1355 | 0.932
H3255 | 0.714
NCI-H1792 | 0.703
NCI-H647 | 1.09
Calu-6 | 0.309
LCLC-97TM1 | 0.272
NCI-H1703 | 0.373

Cell Line | relative viability
LXF-289 | 0.967
LU99A | 0.456
NCI-H2023 | 0.594
NCI-H2228 | 0.645
NCI-H1437 | 0.993
NCI-H1395 | 1.14
NCI-H2009 | 1.11
HCC-366 | 0.375
EBC-1 | 0.95
NCI-H1915 | 1.08
COR-L 105 | 0.945
SK-LU-1 | 1.07
IA-LM | 0.738
NCI-H661 | 0.862
A549 | 0.838
SW 1573 | 0.875
HCC-44 | 0.813
COR-L23 | 0.449

Same assay, conditions: first compound 0.06325 µM

Cell Line | relative viability
EKVX | 0.813
EPLC-272H | 1.02
NCI-H520 | 0.871
NCI-H1563 | 0.902
NCI-H650 | 0.992
RERF-LC-KJ | 0.842
HCC-827 | 0.993
NCI-H2087 | 0.822
SK-MES-1 | 0.715
NCI-H1299 | 1.07
NCI-H1651 | 0.694
UMC-11 | 1.08
NCI-H1355 | 0.963
H3255 | 0.682
NCI-H1792 | 0.759
NCI-H647 | 0.901
Calu-6 | 0.252
LCLC-97TM1 | 0.328
NCI-H1703 | 0.339

Cell Line | relative viability
LXF-289 | 0.939
LU99A | 0.439
NCI-H2023 | 0.156
NCI-H2228 | 0.657
NCI-H1437 | 0.835
NCI-H1395 | 1.12
NCI-H2009 | 0.504
HCC-366 | 0.496
EBC-1 | 0.9
NCI-H1915 | 0.975
COR-L 105 | 0.588
SK-LU-1 | 1.01
IA-LM | 0.644
NCI-H661 | 0.59
A549 | 0.35
SW 1573 | 0.723
HCC-44 | 0.862
COR-L23 | 0.154

Compound: CC(C)(C)c1cc(NC(=O)Nc2ccc(-c3cn4c(n3)sc3cc(OCCN5CCOCC5)ccc34)cc2)no1 [Quizartinib] + COc1cc2c(Oc3ccc(NC(=O)C4(C(=O)Nc5ccc(F)cc5)CC4)cc3F)ccnc2cc1OCCCN1CCOCC1 [Foretinib] (partner 0.25 µM)
Assay: as above
Settings: first compound 0.001 µM
Outline: as §1

Cell Line | relative viability
EKVX | 0.201
EPLC-272H | 0.535
NCI-H520 | 0.81
NCI-H1563 | 0.975
NCI-H650 | 1.02
RERF-LC-KJ | 0.844
HCC-827 | 1.02
SK-MES-1 | 0.789
NCI-H1299 | 1.06
NCI-H1651 | 0.766
NCI-H1355 | 0.917
H3255 | 0.874
NCI-H647 | 0.818
NCI-H1623 | 0.694
Calu-6 | 0.74
LCLC-97TM1 | 0.889
NCI-H1703 | 0.514
LXF-289 | 0.913
LU99A | 0.715

Cell Line | relative viability
NCI-H2023 | 0.788
NCI-H2228 | 0.927
NCI-H1437 | 0.719
NCI-H1395 | 0.961
NCI-H2009 | 1.24
HCC-366 | 0.884
EBC-1 | 0.0847
NCI-H1915 | 1.06
COR-L 105 | 0.775
SK-LU-1 | 0.779
IA-LM | 1.05
SW 900 | 0.802
NCI-H661 | 0.963
A549 | 0.949
NCI-H2342 | 0.965
SW 1573 | 0.946
NCI-H1650 | 0.549
ChaGo-K-1 | 0.974
COR-L23 | 0.979

Same assay, conditions: first compound 0.003162 µM

Cell Line | relative viability
EKVX | 0.739
EPLC-272H | 0.685
NCI-H520 | 0.636
NCI-H1563 | 0.898
NCI-H650 | 1.04
RERF-LC-KJ | 0.828
HCC-827 | 0.922
NCI-H2087 | 1.05
SK-MES-1 | 0.901
NCI-H1299 | 1.05
NCI-H1651 | 0.747
UMC-11 | 0.972
NCI-H1355 | 0.957
H3255 | 0.84
NCI-H647 | 1.09
NCI-H1623 | 0.884
Calu-6 | 0.779
LCLC-97TM1 | 0.802
NCI-H1703 | 0.35
LXF-289 | 1

Cell Line | relative viability
LU99A | 0.871
NCI-H2023 | 0.752
NCI-H2228 | 0.954
NCI-H1437 | 1.16
NCI-H1395 | 0.971
NCI-H2009 | 1.17
HCC-366 | 0.921
EBC-1 | 0.105
NCI-H1915 | 0.992
COR-L 105 | 0.986
SK-LU-1 | 0.76
IA-LM | 1.01
SW 900 | 0.85
NCI-H661 | 0.945
A549 | 0.975
NCI-H2342 | 0.938
SW 1573 | 0.886
NCI-H1650 | 1.11
ChaGo-K-1 | 0.911
COR-L23 | 0.856

Same assay, conditions: first compound 0.01 µM

Cell Line | relative viability
EKVX | 0.749
EPLC-272H | 0.75
NCI-H520 | 0.894
NCI-H1563 | 0.884
NCI-H650 | 1.16
RERF-LC-KJ | 0.888
HCC-827 | 1.07
NCI-H2087 | 1.12
SK-MES-1 | 0.972
NCI-H1299 | 1.14
NCI-H1651 | 0.872
UMC-11 | 1.17
NCI-H1355 | 0.936
H3255 | 1.14
NCI-H647 | 1.1
NCI-H1623 | 0.831
Calu-6 | 0.972
LCLC-97TM1 | 0.906
NCI-H1703 | 0.371
LXF-289 | 1.13

Cell Line | relative viability
LU99A | 0.838
NCI-H2023 | 0.869
NCI-H2228 | 1.01
NCI-H1437 | 1.28
NCI-H1395 | 1.02
NCI-H2009 | 1.29
HCC-366 | 0.992
EBC-1 | 0.0907
NCI-H1915 | 1.13
COR-L 105 | 1.03
SK-LU-1 | 0.943
IA-LM | 1.17
NCI-H661 | 1.13
A549 | 1.08
NCI-H2342 | 1.11
SW 1573 | 0.896
NCI-H1650 | 1.35
ChaGo-K-1 | 0.959
COR-L23 | 1.06

Same assay, conditions: first compound 0.03162 µM

Cell Line | relative viability
EKVX | 0.852
EPLC-272H | 0.682
NCI-H520 | 0.722
NCI-H1563 | 0.631
NCI-H650 | 0.978
RERF-LC-KJ | 0.926
HCC-827 | 1.06
NCI-H2087 | 0.941
SK-MES-1 | 0.925
NCI-H1299 | 1.05
NCI-H1651 | 0.606
UMC-11 | 0.957
NCI-H1355 | 0.814
H3255 | 1.07
NCI-H647 | 1.16
NCI-H1623 | 0.844
Calu-6 | 0.88
LCLC-97TM1 | 0.953
NCI-H1703 | 0.406

Cell Line | relative viability
LXF-289 | 0.948
LU99A | 0.808
NCI-H2228 | 0.715
NCI-H1437 | 1.07
NCI-H1395 | 0.995
NCI-H2009 | 1.17
HCC-366 | 0.914
EBC-1 | 0.133
NCI-H1915 | 1.03
COR-L 105 | 1
SK-LU-1 | 0.83
IA-LM | 1.14
SW 900 | 0.882
NCI-H661 | 0.994
A549 | 0.818
NCI-H2342 | 1
SW 1573 | 1.02
ChaGo-K-1 | 0.866
COR-L23 | 0.973

Same assay, conditions: first compound 0.1 µM

Cell Line | relative viability
EKVX | 0.833
EPLC-272H | 0.669
NCI-H520 | 0.541
NCI-H1563 | 0.881
NCI-H650 | 1.18
RERF-LC-KJ | 0.804
HCC-827 | 1.07
NCI-H2087 | 1.07
SK-MES-1 | 0.939

Source: the supplement of paper PMC10307832
